Series [1] deals with human cell lysate (HEK293T). The series can be described thus: IA-DTB chemoproteomics, proteome-wide engagement in lysate. The series is classed as binding. Conditions: engaged peptides log2 CR ≤−1, P-value ≤0.05 vs DMSO. How it is done:
HEK293T lysate supplemented with recombinant SspH1 (161–700) and SspH2 (166–783) was treated with a dilution series […] of either compound 6 or 7 for four hours at RT. Following compound treatments, we used an iodoacetamide-desthiobiotin (IA-DTB) competitive chemoproteomics workflow to assess cysteine engagement.[52] Comparison of DMSO treated lysate with compound treated lysate enabled identification of peptides where IA-DTB labelling of cysteines was blocked due to fragment engagement (Fig. S5). […] Competition of the SspH2 C580 peptide occurred at lower concentrations compared to the SspH1 C492 peptide, which corroborated our previous kinetics experiments that both compounds label SspH2 faster than SspH1 (Fig. S4).
A pellet of 50 × 10^6 HEK293T cells was resuspended in 5 mL lysis buffer (50 mM HEPES pH 8.0, 150 mM NaCl, 1% IGEPAL, 0.1% SDS, 0.5% Na-deoxycholate, supplemented with protease inhibitor cocktail (Sigma-Aldrich, P8340)). The lysate was sonicated and centrifuged (10 min, 17 000 × g) and the soluble fraction isolated. Protein concentrations were measured using a Rapid BCA Gold Protein Assay Kit (Thermo Scientific, A53226) and diluted to 0.75 mg mL^−1 with lysis buffer. The lysate was then spiked with 0.2 μM of each recombinant SspH1 (aa 161–700) and SspH2 (aa 166–783). […]

The test system of series [2] is HEK293T cells. The series can be described thus: Cell toxicity observed during in-cell treatment. The series is classed as cell-based, human. Conditions: 50 μM, four hours. Here is the method: We next interrogated whether compounds 6 or 7 could engage SspH1 or SspH2 in live human cells. To simplify experimental setup, we opted for NEL overexpression in mammalian cells, coupled with chemoproteomics, over a Salmonella infection-based assay. SspH1 or SspH2 were transiently expressed in HEK293T cells (Fig. S6), and cells treated with 50 μM of either compound 6 or 7 for four hours. […] Following cell lysis, we again utilized an IA-DTB chemoproteomics workflow to assess cysteine engagement.[52] Peptides engaging with compound 6 were identified with an average log2 CR ≤ −1 and P-value ≤0.05 when compared to DMSO controls (Fig. 5C and D). […] However, none of these included catalytic cysteines-containing peptides of HECT or RBR E3 ligases, nor of DUBs. Therefore, compound 6 provides a useful starting point for medicinal chemistry campaigns to design potent and specific tool compounds for SspH1 and SspH2.
All cells were grown in DMEM media (Gibco, 41966-029) supplemented with FBS (ThermoFisher, A5256701) and Pen/Strep (Gibco, 15140-122) at 37 °C with 5% CO2. SspH1 (aa 1–700) and SspH2 (aa 1–786) genes were cloned separately into […] plasmids. HEK293T cells were seeded in 6-well plates at a density of 2 × 10^5 cells per well. […] Protein concentrations were measured using a Rapid BCA Gold Protein Assay Kit (Thermo Scientific, A53226) and diluted to 1 mg mL^−1 with lysis buffer. […]

`Cc1cc(-c2nc3ccccc3n2C2CCN(C(=O)CCl)CC2)cc(C)c1O.Cl` [compound 6]: the “proteome-wide labelling in human cell lysate” value in series [1] was “promiscuous protein labellers”. The cell toxicity result in series [2] was “no apparent cell toxicity”.
As to `Cl.O=C(CCl)N1CCC(n2c(-c3ccc(C(F)(F)F)cc3)nc3ccccc32)CC1` [compound 7], the “proteome-wide labelling in human cell lysate” value in series [1] is reported as “promiscuous protein labellers”. The cell toxicity result in series [2] was “significant effects on cell attachment and potential toxicity”.

The values above are taken from paper PMC12584752, “Covalent fragment screening to inhibit the E3 ligase activity of bacterial NEL enzymes SspH1 and SspH2” (RSC Chemical Biology, 2025).
